Counter-ions that a name gives are not always drawn.
Tested on: Acinetobacter baumannii ATCC17978
Test: Antimicrobial susceptibility testing: 90% growth inhibitory concentration (IC90) determination, Iso-Sensitest broth
Format: cell-based
Settings: 90% growth inhibitory concentration, Acinetobacter baumannii ATCC17978, Iso-Sensitest broth, OD 600 nm over 16 h; read-out: ATCC17978 IC90
Procedure, shortened: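 A. baumannii ATCC17978 grown in Iso-Sensitest broth across 10 compound concentrations at 35±2 °C.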

Question: How did the IC90 turn out when `COc1ccc(-c2cnc3c(Nc4ccc(C(=O)N5CCC(CN)CC5)c(C(F)F)c4)nccn23)cc1F` [Example 340, [4-(aminomethyl)piperidin-1-yl]-[2-(difluoromethyl)-4-[[3-(3-fluoro-4-methoxyphenyl)imidazo[1,2-a]pyrazin-8-yl]amino]phenyl]methanone] was run?
Answer: 500 nM

Question: With `COc1ccc(-c2cnc3c(Nc4ccc(C(=O)N5CCC(c6nncn6C)CC5)c(C)c4)nccn23)cc1F` [Example 357, [4-[[3-(3-fluoro-4-methoxyphenyl)imidazo[1,2-a]pyrazin-8-yl]amino]-2-methylphenyl]-[4-(4-methyl-1,2,4-triazol-3-yl)piperidin-1-yl]methanone] as the compound, how does the IC90 read?
Answer: 330 nM

Same assay, conditions: Acinetobacter baumannii, ATCC17978, 16 h, read-out: ATCC17978 IC90, 90% growth inhibitory concentration, Acinetobacter baumannii ATCC17978, Iso-Sensitest broth, OD 600 nm over 16 h

Question: With `CNCCC(=O)N1CCN(C(=O)c2ccc(Nc3nccn4c(-c5ccc(OC(F)F)cc5)cnc34)cc2C)CC1` [Example 332, 1-[4-[4-[[3-[4-(difluoromethoxy)phenyl]imi-dazo[1,2-a]pyrazin-8-yl]amino]-2-methylbenzoyl]piperazin-1-yl]-3-(methylamino)propan-1-one; hydrochloride] as the compound, how does the IC90 read?
Answer: 410 nM

Question: How did the IC90 turn out when `CN[C@H](C)C(=O)N1CCN(C(=O)c2ccc(Nc3nccn4c(-c5ccc(OC(F)F)cc5)cnc34)cc2C)CC1` [Example 334, (2R)-1-[4-[4-[[3-[4-(difluoromethoxy)phenyl]imi-dazo[1,2-a]pyrazin-8-yl]amino]-2-methylbenzoyl]piperazin-1-yl]-2-(methylamino)propan-1-one; hydrochloride] was run?
Answer: 430 nM

Question: `Cc1cc(Nc2nccn3c(-c4ccc(OC(F)F)cc4)cnc23)ccc1C(=O)N1CCN(C(=O)C2CNC2)CC1` [Example 335, [4-(azetidine-3-carbonyl)piperazin-1-yl]-[4-[[3-[4-(difluoromethoxy)phenyl]imi-dazo[1,2-a]pyrazin-8-yl]amino]-2-methylphenyl]methanone; hy-drochloride] was tested. Which IC90 did it give?
Answer: 450 nM

Question: How did the IC90 turn out when `Cc1cc(Nc2nccn3c(-c4ccc(OC(F)F)cc4)cnc23)ccc1C(=O)N1CCN(C(=O)C[C@@H]2CCCN2)CC1` [Example 336, 1-[4-[4-[[3-[4-(difluoromethoxy)phenyl]imi-dazo[1,2-a]pyrazin-8-yl]amino]-2-methylbenzoyl]piperazin-1-yl]-2-[(2S)-pyrrolidin-2-yl]ethanone] was run?
Answer: 460 nM

Question: Which IC90 does the source give for `Cc1cc(Nc2nccn3c(-c4ccc(OC(F)F)cc4)cnc23)ccc1C(=O)N1CCN(C(=O)c2ccc(CN3CCNCC3)cc2)CC1` [Example 337, [4-[4-[[3-[4-(difluoromethoxy)phenyl]imi-dazo[1,2-a]pyrazin-8-yl]amino]-2-methylbenzoyl]piperazin-1-yl]-[4-(piperazin-1-ylmethyl)phenyl]methanone; hydrochloride] here?
Answer: 470 nM

Question: How did the IC90 turn out when `CC(=O)NCCCC[C@H](N)C(=O)N1CCN(C(=O)c2ccc(Nc3nccn4c(-c5ccc(OC(F)F)cc5)cnc34)cc2C)CC1` [Example 338, N-[(5S)-5-amino-6-[4-[4-[[3-[4-(difluoromethoxy)phenyl]imi-dazo[1,2-a]pyrazin-8-yl]amino]-2-methylbenzoyl]piperazin-1-yl]-6-oxohexyl]acetamide; hydrochloride] was run?
Answer: 480 nM

Question: `Cc1cc(Nc2nccn3c(-c4ccc(OC(F)F)cc4)cnc23)ccc1C(=O)N1CCN(C(=O)C(C)(C)N)CC1` [Example 339, 2-amino-1-[4-[4-[[3-[4-(difluoromethoxy)phenyl]imi-dazo[1,2-a]pyrazin-8-yl]amino]-2-methylbenzoyl]piperazin-1-yl]-2-methylpropan-1-one; hydrochloride] was tested. Which IC90 did it give?
Answer: 500 nM

Question: With `Cc1cc(Nc2nccn3c(-c4ccc(OC(F)F)cc4)cnc23)ccc1C(=O)N1CCN(C(=O)[C@@H]2CNCCO2)CC1` [Example 341, [4-[[3-[4-(difluoromethoxy)phenyl]imi-dazo[1,2-a]pyrazin-8-yl]amino]-2-methylphenyl]-[4-[(2S)-morpholine-2-carbonyl]piperazin-1-yl]methanone; hydrochloride] as the compound, how does the IC90 read?
Answer: 520 nM

Question: Which IC90 does the source give for `CCC[C@@H](N)C(=O)N1CCN(C(=O)c2ccc(Nc3nccn4c(-c5ccc(OC(F)F)cc5)cnc34)cc2C)CC1` [Example 342, (2R)-2-amino-1-[4-[4-[[3-[4-(difluoromethoxy)phenyl]imi-dazo[1,2-a]pyrazin-8-yl]amino]-2-methylbenzoyl]piperazin-1-yl]pentan-1-one; hydrochloride] here?
Answer: 550 nM

Question: `CCC[C@H](N)C(=O)N1CCN(C(=O)c2ccc(Nc3nccn4c(-c5ccc(OC(F)F)cc5)cnc34)cc2C)CC1` [Example 343, (2S)-2-amino-1-[4-[4-[[3-[4-(difluoromethoxy)phenyl]imi-dazo[1,2-a]pyrazin-8-yl]amino]-2-methylbenzoyl]piperazin-1-yl]pentan-1-one] was tested. Which IC90 did it give?
Answer: 560 nM

Question: How did the IC90 turn out when `CCC(N)C(=O)N1CCN(C(=O)c2ccc(Nc3nccn4c(-c5ccc(OC(F)F)cc5)cnc34)cc2C)CC1` (centres unmarked) [Example 344, 2-amino-1-[4-[4-[[3-[4-(difluoromethoxy)phenyl]imi-dazo[1,2-a]pyrazin-8-yl]amino]-2-methylbenzoyl]piperazin-1-yl]butan-1-one; hydrochloride] was run?
Answer: 560 nM

Question: How did the IC90 turn out when `Cc1cc(Nc2nccn3c(-c4ccc(OC(F)F)cc4)cnc23)ccc1C(=O)N1CCN(C(=O)CNC(=O)CN)CC1` [Example 345, 2-amino-N-[2-[4-[4-[[3-[4-(difluoromethoxy)phenyl]imi-dazo[1,2-a]pyrazin-8-yl]amino]-2-methylbenzoyl]piperazin-1-yl]-2-oxoethyl]acetamide] was run?
Answer: 570 nM

Question: How did the IC90 turn out when `Cc1cc(Nc2nccn3c(-c4ccc(OC(F)F)cc4)cnc23)ccc1C(=O)N1CCN(C(=O)C(O)CO)CC1` (centres unmarked) [Example 346, 1-[4-[4-[[3-[4-(difluoromethoxy)phenyl]imi-dazo[1,2-a]pyrazin-8-yl]amino]-2-methylbenzoyl]piperazin-1-yl]-2,3-dihydroxypropan-1-one] was run?
Answer: 620 nM

Question: For `Cc1cc(Nc2nccn3c(-c4ccc(OC(F)F)cc4)cnc23)ccc1C(=O)N1CCN(C(=O)CN2CCNCC2)CC1` [Example 347, 1-[4-[4-[[3-[4-(difluoromethoxy)phenyl]imi-dazo[1,2-a]pyrazin-8-yl]amino]-2-methylbenzoyl]piperazin-1-yl]-2-piperazin-1-ylethanone], which IC90 is on record?
Answer: 650 nM

Question: `COc1ccc(-c2cnc3c(Nc4ccc(C(=O)N5CCN(C6CCNC6)CC5)c(C)c4)nccn23)cc1F` (centres unmarked) [Example 348, [4-[[3-(3-fluoro-4-methoxyphenyl)imidazo[1,2-a]pyrazin-8-yl]amino]-2-methylphenyl]-(4-pyrrolidin-3-ylpiperazin-1-yl)methanone; hydrochloride] was tested. Which IC90 did it give?
Answer: 660 nM

Question: With `Cc1cc(Nc2nccn3c(-c4ccc(OC(F)F)cc4)cnc23)ccc1C(=O)N1CCC(C(=O)N2C[C@H](O)[C@@H](O)[C@H](O)[C@H]2CO)CC1` [Example 349, [4-[[3-[4-(difluoromethoxy)phenyl]imi-dazo[1,2-a]pyrazin-8-yl]amino]-2-methylphenyl]-[4-[(2R,3R,4R,5S)-3,4,5-trihydroxy-2-(hydroxymethyl)piperidine-1-carbonyl]piperidin-1-yl]methanone] as the compound, how does the IC90 read?
Answer: 660 nM

Question: With `Cc1cc(Nc2nccn3c(-c4ccc(OC(F)F)cc4)cnc23)ccc1C(=O)N1CCC(C(=O)N[C@@H]2[C@@H](O)[C@H](O)[C@@H](CO)O[C@@H]2O)CC1` [Example 350, 1-[4-[[3-[4-(difluoromethoxy)phenyl]imi-dazo[1,2-a]pyrazin-8-yl]amino]-2-methylbenzoyl]-N-[(2S,3R,4R,5S,6R)-2,4,5-trihydroxy-6-(hydroxymethyl)oxan-3-yl]piperidine-4-carboxamide] as the compound, how does the IC90 read?
Answer: 710 nM

Question: For `CCNC(=O)CN1CCN(C(=O)c2ccc(Nc3nccn4c(-c5ccc(OC(F)F)cc5)cnc34)cc2C)CC1` [Example 352, 2-[4-[4-[[3-[4-(difluoromethoxy)phenyl]imi-dazo[1,2-a]pyrazin-8-yl]amino]-2-methylbenzoyl]piperazin-1-yl]-N-ethylacetamide], which IC90 is on record?
Answer: 220 nM

Question: How did the IC90 turn out when `Cc1cc(Nc2nccn3c(-c4ccc(OC(F)F)cc4)cnc23)ccc1C(=O)N1CCC(Cn2ccnc2)CC1` [Example 353, [4-[[3-[4-(difluoromethoxy)phenyl]imi-dazo[1,2-a]pyrazin-8-yl]amino]-2-methylphenyl]-[4-(imidazol-1-ylmethyl)piperidin-1-yl]methanone] was run?
Answer: 240 nM

Question: For `Cc1cc(Nc2nccn3c(-c4ccc(OC(F)F)cc4)cnc23)ccc1C(=O)N1CCC(Cn2cnnc2)CC1` [Example 354, [4-[[3-[4-(difluoromethoxy)phenyl]imi-dazo[1,2-a]pyrazin-8-yl]amino]-2-methylphenyl]-[4-(1,2,4-triazol-4-ylmethyl)piperidin-1-yl]methanone], which IC90 is on record?
Answer: 240 nM

Question: `Cc1cc(Nc2nccn3c(-c4ccc(OC(F)F)cc4)cnc23)ccc1C(=O)N1CCN(CCN2CCCCC2)CC1` [Example 355, [4-[[3-[4-(difluoromethoxy)phenyl]imi-dazo[1,2-a]pyrazin-8-yl]amino]-2-methylphenyl]-[4-(2-piperidin-1-ylethyl)piperazin-1-yl]methanone] was tested. Which IC90 did it give?
Answer: 260 nM

Question: Which IC90 does the source give for `Cc1cc(Nc2nccn3c(-c4ccc(OC(F)F)cc4)cnc23)ccc1C(=O)N1CCC(c2nccn2C)CC1` [Example 356, [4-[[3-[4-(difluoromethoxy)phenyl]imi-dazo[1,2-a]pyrazin-8-yl]amino]-2-methylphenyl]-[4-(1-methylimidazol-2-yl)piperidin-1-yl]methanone] here?
Answer: 300 nM

Same assay, conditions: read-out: ATCC17978 IC90; 90% growth inhibitory concentration, Acinetobacter baumannii ATCC17978, Iso-Sensitest broth, OD 600 nm over 16 h

Question: `CNCC(=O)N1CCN(C(=O)c2ccc(Nc3nccn4c(-c5ccc(OC(F)F)cc5)cnc34)cc2C)CC1` [Example 331, 1-[4-[4-[[3-[4-(difluoromethoxy)phenyl]imi-dazo[1,2-a]pyrazin-8-yl]amino]-2-methylbenzoyl]piperazin-1-yl]-2-(methylamino)ethanone] was tested. Which IC90 did it give?
Answer: 410 nM

Question: Which IC90 does the source give for `Cc1cc(Nc2nccn3c(-c4ccc(OC(F)F)cc4)cnc23)ccc1C(=O)N1CCN(C(=O)CNC(=N)N)CC1` [Example 333, 1-[2-[4-[4-[[3-[4-(difluoromethoxy)phenyl]imi-dazo[1,2-a]pyrazin-8-yl]amino]-2-methylbenzoyl]piperazin-1-yl]-2-oxoethyl]guanidine] here?
Answer: 410 nM
